In publication PMC7556876, “POMK regulates dystroglycan function via LARGE1-mediated elongation of matriglycan” (eLife, 2020):

Target: T1, POMK (Protein O-Mannose Kinase) (Danio rerio, UniProt Q5U3W1)
T1 construct: Purified Danio rerio POMK
Test: ligand-observed 1D 1H NMR titration (Man H1 peak intensity)
Format: binding

T1 sequence (Q5U3W1 whole entry): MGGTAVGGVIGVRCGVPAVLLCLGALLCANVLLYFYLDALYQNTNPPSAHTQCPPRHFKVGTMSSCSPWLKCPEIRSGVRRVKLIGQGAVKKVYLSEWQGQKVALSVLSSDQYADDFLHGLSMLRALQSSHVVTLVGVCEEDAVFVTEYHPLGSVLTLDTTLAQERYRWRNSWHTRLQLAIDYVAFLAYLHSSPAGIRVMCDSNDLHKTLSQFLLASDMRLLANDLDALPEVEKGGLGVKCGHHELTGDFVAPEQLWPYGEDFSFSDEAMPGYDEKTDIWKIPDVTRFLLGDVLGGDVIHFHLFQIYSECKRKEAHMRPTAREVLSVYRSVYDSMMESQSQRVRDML

For `CC(=O)N[C@H]1[C@H](O[C@H]2[C@H](O)[C@@H](CO)O[C@@H](O[C@H]3[C@H](O)[C@H](O)[C@@H](Oc4ccc5c(C)cc(=O)oc5c4)O[C@@H]3COP(=O)(O)O)[C@@H]2NC(C)=O)O[C@H](CO)[C@H](O)[C@@H]1O` [GGMp-MU], the Kd was greater than 500 µM.
